EC50 data for 33 molecules are collected here from patent publication US9284323B2, “Naphthalene acetic acid derivatives against HIV infection” (Gilead Sciences, Inc., priority 2012, dated 2016).

The test system of the assay is HIV-IIIb. Kind of assay: Test A: Antiviral Assays in MT4 Cells. Type of assay: cell-based. The settings on record: MT-4 cells infected with HIV-IIIb, 5 days incubation, CellTiter-Glo readout. As for the experimental part:
The antiviral properties of a compound disclosed herein may be determined using Test A described below.
Test A: Antiviral Assays in MT4 Cells
For the antiviral assay utilizing MT-4 cells, 0.4 μL of […] test concentration of 3-fold serially diluted compound in DMSO was added to 40 μL of cell growth medium (RPMI 1640, 10% FBS, 1% penicillin/Streptomycin, 1% L-Glutamine, 1% HEPES) in each well of 384-well assay plates (10 concentrations) in quadruplicate.
1 mL aliquots of 2×10e6 MT-4 cells are pre-infected for 1 and 3 hrs respectively, @ 37° C. with 25 μL (MT4) or of either cell growth medium (mock-infected) or a fresh 1:250 dilution of an HIV-IIIb concentrated ABI stock (0.004 m.o.i. for MT4 cells). Infected and uninfected cells are diluted in cell growth medium and 35 μL of 2000 (for MT4) cells is added to each well of the assay plates.
Assay plates were then incubated in a 37° C. incubator. After 5 days of incubation, 25 μl of 2× concentrated CellTiter-Glo™ Reagent (catalog # G7573, Promega Biosciences, Inc., Madison, Wis.) was added to each well of the assay plate. Cell lysis was carried out by incubating at room temperature for 2-3 min and then chemiluminescence was read using the Envision reader (PerkinElmer).
For orientation: ATP-based viability assays read luminescence as a measure of living cells.

Where [1] appears, read: Human immunodeficiency virus 1, IIIB, MT4, 120 h, Table I.
Setting [2] is: Human immunodeficiency virus 1, IIIB, MT4, 120 h, Table II.

In general, EC50 refers to the concentration that produces a half-maximal response. The low end stands for an effect from little substance, the high end for a need for much substance.

Molecules are shown by their SMILES.

Under setting [1], `Cc1ccc2cc(C)c([C@H](OC(C)(C)C)C(=O)O)c(-c3ccc4c5c(ccnc35)CCO4)c2c1` (atropisomer, axis not shown) [Example 15, (S)-2-tert-Butoxy-2-((R)-1-(2,3-dihydropyrano[4,3,2-de]quinolin-7-yl)-3,7-dimethylnaphthalen-2-yl)acetic acid] returned an EC50 of 34 nM. Still for that read-out and setting: then `Cc1ccc2c(-c3ccc4c5c(ccnc35)CCO4)c([C@H](OC(C)(C)C)C(=O)O)c(C)cc2c1` (atropisomer, axis not shown) [Example 16, (S)-2-tert-butoxy-2-((S)-1-(2,3-dihydropyrano[4,3,2-de]quinolin-7-yl)-3,6-dimethylnaphthalen-2-yl)acetic acid], with 1740 nM; and `Cc1cc2cc(C#CC3CC3)ccc2c(-c2ccc3c4c(ccnc24)CCO3)c1[C@H](OC(C)(C)C)C(=O)O` (atropisomer, axis not shown) [Example 21, (S)-2-tert-Butoxy-2-((R)-6-(cyclopropylethynyl)-1-(2,3-dihydropyrano[4,3,2-de]quinolin-7-yl)-3-methylnaphthalen-2-yl)acetic acid], with 169 nM.

In turn, `CCOc1c(C#N)ccc2c(-c3ccc4c5c(ccnc35)CCO4)c([C@H](OC(C)(C)C)C(=O)O)c(C)cc12` (atropisomer, axis not shown) [Example 22, (S)-2-tert-Butoxy-2-((R)-6-cyano-1-(2,3-dihydropyrano[4,3,2-de]quinolin-7-yl)-5-ethoxy-3-methylnaphthalen-2-yl)acetic acid] returned an EC50 under setting [1] of 14 nM.

Take `CC(C)(C)O[C@H](C(=O)O)c1c(-c2ccc3c4c(ccnc24)CCO3)c2ccccc2c2ccccc12` (atropisomer, axis not shown) [Example 24, (S)-2-tert-Butoxy-2-((R)-10-(2,3-dihydropyrano[4,3,2-de]quinolin-7-yl)phenanthren-9-yl)acetic acid]: the EC50 under setting [1] turned out to be 109 nM.

The molecule `COCC(C)(C)O[C@H](C(=O)O)c1c(C)cc2ccccc2c1-c1ccc2c3c(ccnc13)CCO2` (atropisomer, axis not shown) [Example 25, (2S)-2-((R)-1-(2,3-dihydropyrano[4,3,2-de]quinolin-7-yl)-3-methylnaphthalen-2-yl)-2-(1-methoxy-2-methylpropan-2-yloxy)acetic acid] yielded an EC50 (Table I) of 37 nM. `COCC(C)(C)O[C@H](C(=O)O)c1c(C)cc2ccccc2c1-c1ccc2c3c(ccnc13)CCO2` (atropisomer, axis not shown) [Example 26, (2S)-2-((S)-1-(2,3-Dihydropyrano[4,3,2-de]quinolin-7-yl)-3-methylnaphthalen-2-yl)-2-(1-methoxy-2-methylpropan-2-yloxy)acetic acid] registered an EC50 (Table I) of 929 nM. On to `CCOCC(C)(C)O[C@H](C(=O)O)c1c(C)cc2ccccc2c1-c1ccc2c3c(ccnc13)CCO2` (atropisomer, axis not shown) [Example 27, (2S)-2-((R)-1-(2,3-Dihydropyrano[4,3,2-de]quinolin-7-yl)-3-methylnaphthalen-2-yl)-2-(1-ethoxy-2-methylpropan-2-yloxy)acetic acid], for which, under “Table I”, a half-maximal effect (EC50) was put at 84 nM. Same read-out and setting: then `CCOCC(C)(C)O[C@H](C(=O)O)c1c(C)cc2ccccc2c1-c1ccc2c3c(ccnc13)CCO2` (atropisomer, axis not shown) [Example 28, (2S)-2-((S)-1-(2,3-Dihydropyrano[4,3,2-de]quinolin-7-yl)-3-methylnaphthalen-2-yl)-2-(1-ethoxy-2-methylpropan-2-yloxy)acetic acid], with 1230 nM. `CCCC(C)(C)O[C@H](C(=O)O)c1c(C)cc2ccccc2c1-c1ccc2c3c(ccnc13)CCO2` (atropisomer, axis not shown) [Example 29, (S)-2-((R)-1-(2,3-Dihydropyrano[4,3,2-de]quinolin-7-yl)-3-methylnaphthalen-2-yl)-2-(2-methylpentan-2-yloxy)acetic acid] had an EC50 under setting [1] of 84 nM. Turning to `CCCCC(C)(C)O[C@H](C(=O)O)c1c(C)cc2ccccc2c1-c1ccc2c3c(ccnc13)CCO2` (atropisomer, axis not shown) [Example 30, (S)-2-((S)-1-(2,3-Dihydropyrano[4,3,2-de]quinolin-7-yl)-3-methylnaphthalen-2-yl)-2-(2-methylhexan-2-yloxy)acetic acid], under setting [1], the response was half-maximal at 84 nM (EC50).

`CC(C)(C)O[C@H](C(=O)O)c1c2c(c3ccccc3c1-c1ccc3c4c(ccnc14)CCO3)CCC2` (atropisomer, axis not shown) [Example 33] showed an EC50 (Table II) of 1660 nM. As for `CC(C)(C)O[C@H](C(=O)O)c1c2c(c3ccccc3c1-c1ccc3c4c(ccnc14)CCO3)CCC2` (atropisomer, axis not shown) [Example 34], the EC50 (Table II) was 60 nM.

Under setting [2], `Cc1cc2cc(-c3cnc(N4CCN(C)CC4)nc3)ccc2c(-c2ccc3c4c(ccnc24)CCO3)c1[C@H](OC(C)(C)C)C(=O)O` (atropisomer, axis not shown) [Example 35] returned an EC50 of 4.4 nM. Take `Cc1cc2cc(-c3cnc(-c4ccccc4)nc3)ccc2c(-c2ccc3c4c(ccnc24)CCO3)c1[C@H](OC(C)(C)C)C(=O)O` (atropisomer, axis not shown) [Example 36]: where the note is “Table II”, the EC50 came to 100 nM. As to `Cc1cc2cc(-c3cnc(-c4ccccc4)nc3)ccc2c(-c2ccc3c4c(ccnc24)CCO3)c1[C@H](OC(C)(C)C)C(=O)O` (atropisomer, axis not shown) [Example 37], the EC50 (Table II) was 4450 nM. Same read-out and setting: then `Cc1cc2cc(-c3cnc(-c4cncnc4)nc3)ccc2c(-c2ccc3c4c(ccnc24)CCO3)c1[C@H](OC(C)(C)C)C(=O)O` (atropisomer, axis not shown) [Example 38], with 45.2 nM; and `Cc1cc2cc(-c3cnc(-c4cncnc4)nc3)ccc2c(-c2ccc3c4c(ccnc24)CCO3)c1[C@H](OC(C)(C)C)C(=O)O` (atropisomer, axis not shown) [Example 39], with 8680 nM; and `Cc1cc2cc(-c3ccc(-c4cncnc4)cc3)ccc2c(-c2ccc3c4c(ccnc24)CCO3)c1[C@H](OC(C)(C)C)C(=O)O` (atropisomer, axis not shown) [Example 40], with 542 nM.

In turn, `Cc1cc2cc(-c3ccc(-c4cncnc4)cc3)ccc2c(-c2ccc3c4c(ccnc24)CCO3)c1[C@H](OC(C)(C)C)C(=O)O` (atropisomer, axis not shown) [Example 41] yielded an EC50 (Table II) of 40.9 nM. For the molecule `Cc1cc2cc(C#Cc3cncnc3)ccc2c(-c2ccc3c4c(ccnc24)CCO3)c1[C@H](OC(C)(C)C)C(=O)O` (atropisomer, axis not shown) [Example 42], the concentration for a half-maximal effect (EC50) (Table II) stood at 53200 nM. With `Cc1cc2cc(C#Cc3cncnc3)ccc2c(-c2ccc3c4c(ccnc24)CCO3)c1[C@H](OC(C)(C)C)C(=O)O` (atropisomer, axis not shown) [Example 43], the EC50 (Table II) came to 121 nM. Turning to `Cc1cc2cc(-c3ccc4c(cnn4C)c3)ccc2c(-c2ccc3c4c(ccnc24)CCO3)c1[C@H](OC(C)(C)C)C(=O)O` (atropisomer, axis not shown) [Example 44], the EC50 (Table II) stood at 55.6 nM. As for `Cc1cc2cc(-c3ccc4c(cnn4C)c3)ccc2c(-c2ccc3c4c(ccnc24)CCO3)c1[C@H](OC(C)(C)C)C(=O)O` (atropisomer, axis not shown) [Example 45], for the setting “Table II”, the midpoint of the response, the EC50, lay at 354 nM. Under setting [2], `COc1ncc(-c2ccc3c(-c4ccc5c6c(ccnc46)CCO5)c([C@H](OC(C)(C)C)C(=O)O)c(C)cc3c2)c(O)n1` (atropisomer, axis not shown) [Example 47] yielded an EC50 of 59.2 nM.

The molecule `Cc1cc2cc(-c3cnc(N(C)C)nc3)ccc2c(-c2ccc3c4c(ccnc24)CCO3)c1[C@H](OC(C)(C)C)C(=O)O` (atropisomer, axis not shown) [Example 48] displayed an EC50 under setting [2] of 10.4 nM. For the molecule `COc1ncc(-c2ccc3c(-c4ccc5c6c(ccnc46)CCO5)c([C@H](OC(C)(C)C)C(=O)O)c(C)cc3c2)c(OC)n1` (atropisomer, axis not shown) [Example 49], the EC50 under setting [2] amounted to 13.8 nM. As for `CCOc1ncc(-c2ccc3c(-c4ccc5c6c(ccnc46)CCO5)c([C@H](OC(C)(C)C)C(=O)O)c(C)cc3c2)c(OCC)n1` (atropisomer, axis not shown) [Example 50], under setting [2], the half-maximal effective concentration (EC50) is 45.1 nM. Still for that read-out and setting: then `Cc1cc2cc(-c3cnc(N4CCCC4)nc3)ccc2c(-c2ccc3c4c(ccnc24)CCO3)c1[C@H](OC(C)(C)C)C(=O)O` (atropisomer, axis not shown) [Example 51], with 20.5 nM. On the same count and under the same terms, then `Cc1cc2cc(-c3cnc(N4CCOCC4)nc3)ccc2c(-c2ccc3c4c(ccnc24)CCO3)c1[C@H](OC(C)(C)C)C(=O)O` (atropisomer, axis not shown) [Example 52], with 16.8 nM. Turning to `Cc1cc2cc(-c3cncnc3N)ccc2c(-c2ccc3c4c(ccnc24)CCO3)c1[C@H](OC(C)(C)C)C(=O)O` (atropisomer, axis not shown) [Example 53], it took 74.2 nM to reach a half-maximal effect (Table II) (EC50).

`Cc1cc2cc(-c3cncnc3N)ccc2c(-c2ccc3c4c(ccnc24)CCO3)c1[C@H](OC(C)(C)C)C(=O)O` (atropisomer, axis not shown) [Example 54]: the response (Table II) was half-maximal at 19400 nM (EC50). In the case of `Cc1cc2cc(-c3cnc(N)nc3)ccc2c(-c2ccc3c4c(ccnc24)CCO3)c1[C@H](OC(C)(C)C)C(=O)O` (atropisomer, axis not shown) [Example 55], under setting [2], the EC50 worked out at 7.53 nM.
